*1 amine or outer side, *2 acyl side, *3 side chain or, on linkers, in order; H or OH if unused. Where a SMILES comes first, the peptide text is derived from it. [ ]: non-standard residue; d: D form. X1 = O=C(C(N[*:1])c1cc(O)cc(O)c1)[*:2]; Hpg = N[CH](C(=O)O)c1ccc(O)cc1

The subject of data set [1] is human immunodeficiency viruses. Format: cell-based, human immunodeficiency virus. As to the method: The IC50 is less than 7 μg per ml. The inhibitory activity can be measured by light-microscopic observation of HIV-typical syncytia. In this connection, the reduction in syncytia formation is a measure of the activity of the agent, in this case of feglymycin. It is also possible, however, to determine the activity of feglymycin by measuring the amount of HIV particles in cell culture supernatants, e.g. by means of commercially available p24 antigen tests.

The format of data set [2] is physicochemical. An excerpt: Stable in neutral and mildly alkaline medium, but unstable in strongly acidic or strongly alkaline solutions.
Data set [3] is classed as cell-based. The source says:
The tolerability of feglymycin in both the active concentration and even in higher concetrations is good. Cytotoxic effects or other toxicities were not observed.

Regarding `CC(C)C(NC(=O)C(NC(=O)C(N)c1ccc(O)cc1)c1cc(O)cc(O)c1)C(=O)NC(C(=O)NC(C(=O)NC(C(=O)NC(C(=O)NC(C(=O)NC(C(=O)NC(C(=O)NC(C(=O)NC(Cc1ccccc1)C(=O)NC(CC(=O)O)C(=O)O)c1ccc(O)cc1)c1cc(O)cc(O)c1)C(C)C)c1cc(O)cc(O)c1)c1ccc(O)cc1)c1cc(O)cc(O)c1)c1ccc(O)cc1)c1cc(O)cc(O)c1` (stereo not drawn) [feglymycin] (H-[Hpg][X1]V[X1][Hpg][X1][Hpg][X1]V[X1][Hpg]FD-OH; configuration not given here), the “IC50, inhibitory activity on human immunodeficiency viruses” value in data set [1] is reported as “less than 7 μg per ml”. Besides, the Solubility entry in data set [2] is “soluble in methanol, acetonitrile and water”. Further, in data set [3], the “Cytotoxic effects or other toxicities” value is on record as “not observed”.

(Values after patent US5891851A, “Antibiotic, feglymycin, processes for its preparation and its use” (Hoechst Aktiengesellschaft, priority 1996, dated 1999).)
